{"source": "patent US12077503B2", "about": "“Substituted cyclic amides and their use as herbicides” (FMC CORPORATION, priority 2015, dated 2024)", "assay_type_in_all_cases": "in vivo", "key": {"[1]": {"system": "Kochia (Kochia scoparia)", "assay": "Test A postemergence", "description": "(§1) Seeds of plant species selected from barnyardgrass (Echinochloa crus-galli), Kochia (Kochia scoparia), ragweed (common ragweed, Ambrosia elatior), ryegrass, Italian (Italian ryegrass, Lolium multiflorum), crabgrass, large (Digitaria sanguinalis), giant foxtail (Setaria faberii), green foxtail (Setaria viridis), morningglory (Ipomoea spp.), pigweed (Amaranthus retroflexus), velvetleaf (Abutilon theophrasti), wheat (Triticum aestivum), and corn (Zea mays) were planted into a blend of loam soil and sand and treated preemergence with a directed soil spray using test chemicals formulated in anon-phytotoxic solvent mixture which included a surfactant.\n(§2) At the same time, plants selected from these crop and weed species and also blackgrass (Alopecurus myosuroides), and Galium (catchweed bedstraw, Galium aparine) were planted in pots containing the same blend of loam soil and sand and treated with postemergence applications of test chemicals formulated in the same manner. Plants ranged in height from 2 to 10 cm and were in the one- to two-leaf stage for the postemergence treatment. Treated plants and untreated controls were maintained in a greenhouse for approximately 10 d, after which time all treated plants were compared to untreated controls and visually evaluated for injury. Plant response ratings, summarized in Table A, are based on a 0 to 100 scale where 0 is no effect and 100 is complete control. A dash (-) response means no test result."}, "[2]": {"system": "ragweed (common ragweed, Ambrosia elatior)", "assay": "Test A postemergence", "description": "as §1, §2"}, "[3]": {"system": "giant foxtail (Setaria faberii)", "assay": "Test A postemergence", "description": "as §1, §2"}, "[4]": {"system": "ryegrass, Italian (Italian ryegrass, Lolium multiflorum)", "assay": "Test A postemergence", "description": "as §1, §2"}, "[5]": {"system": "wheat (Triticum aestivum)", "assay": "Test A postemergence", "description": "as §1, §2"}, "[6]": {"system": "corn (Zea mays)", "assay": "Test A postemergence", "description": "as §1, §2"}, "[7]": {"system": "barnyardgrass (Echinochloa crus-galli)", "assay": "Test A postemergence", "description": "as §1, §2"}, "[8]": {"system": "pigweed (Amaranthus retroflexus)", "assay": "Test A postemergence", "description": "as §1, §2"}, "[9]": {"system": "blackgrass (Alopecurus myosuroides)", "assay": "Test A postemergence", "description": "as §1, §2"}, "[10]": {"system": "Galium (catchweed bedstraw, Galium aparine)", "assay": "Test A postemergence", "description": "as §1, §2"}, "[11]": {"system": "Kochia (Kochia scoparia)", "assay": "Test A preemergence", "description": "as §1, §2"}, "[12]": {"system": "ragweed (common ragweed, Ambrosia elatior)", "assay": "Test A preemergence", "description": "as §1, §2"}, "[13]": {"system": "giant foxtail (Setaria faberii)", "assay": "Test A preemergence", "description": "as §1, §2"}, "[14]": {"system": "ryegrass, Italian (Italian ryegrass, Lolium multiflorum)", "assay": "Test A preemergence", "description": "as §1, §2"}, "[15]": {"system": "barnyardgrass (Echinochloa crus-galli)", "assay": "Test A preemergence", "description": "as §1, §2"}, "[16]": {"system": "pigweed (Amaranthus retroflexus)", "assay": "Test A preemergence", "description": "as §1, §2"}, "[17]": {"system": "ducksalad (Heteranthera limosa)", "assay": "Test B flooded paddy test", "conditions": "Flood, 250 g ai/ha; 0 to 100 scale where 0 is no effect and 100 is complete control; 13 to 15 d", "method": "(§3) Plant species in the flooded paddy test selected from rice (Oryra sativa), sedge, umbrella (small-flower umbrella sedge, Cyperus difformis), ducksalad (Heteranthera limosa), and barnyardgrass (Echinochloa crus-galli) were grown to the 2-leaf stage for testing. At time of treatment, test pots were flooded to 3 cm above the soil surface, treated by application of test compounds directly to the paddy water, and then maintained at that water depth for the duration of the test. Treated plants and controls were maintained in a greenhouse for 13 to 15 d, after which time all species were compared to controls and visually evaluated. Plant response ratings, summarized in Table B, are based on a scale of 0 to 100 where 0 is no effect and 100 is complete control. A dash (-) response means no test result."}, "[18]": {"system": "sedge, umbrella (small-flower umbrella sedge, Cyperus difformis)", "assay": "Test B flooded paddy test", "conditions": "Flood, 250 g ai/ha; 0 to 100 scale where 0 is no effect and 100 is complete control; 13 to 15 d", "method": "as §3"}, "[19]": {"system": "barnyardgrass (Echinochloa crus-galli)", "assay": "Test B flooded paddy test", "conditions": "Flood, 250 g ai/ha; 0 to 100 scale where 0 is no effect and 100 is complete control; 13 to 15 d", "method": "as §3"}, "[20]": {"system": "rice (Oryra sativa)", "assay": "Test B flooded paddy test", "conditions": "Flood, 250 g ai/ha; 0 to 100 scale where 0 is no effect and 100 is complete control; 13 to 15 d", "method": "as §3"}, "[21]": {"conditions": "500 g ai/ha, postemergence, 0 to 100 scale, 0 no effect, 100 complete control"}, "[22]": {"conditions": "Postemergence, 125 g ai/ha, visual injury, 0 to 100 scale (0 no effect, 100 complete control), approx. 10 d"}, "[23]": {"conditions": "125 g ai/ha, preemergence, 0 to 100 scale (0 no effect, 100 complete control)"}, "[24]": {"conditions": "Preemergence, 500 g ai/ha, 0 is no effect, 100 is complete control"}, "[25]": {"conditions": "125 g ai/ha, postemergence, visual rating after approx. 10 d, 0 to 100 scale (0 no effect, 100 complete control)"}, "[26]": {"conditions": "500 g ai/ha, postemergence, visual injury, 0 to 100 scale (0 no effect, 100 complete control), approx. 10 d"}, "[27]": {"conditions": "125 g ai/ha, Preemergence, visual injury after approximately 10 d, 0 to 100 scale where 0 is no effect and 100 is complete control"}, "[28]": {"conditions": "500 g ai/ha, preemergence, 0 to 100 scale, 0 = no effect, 100 = complete control"}}, "data": [{"smiles": "CC(C)Oc1cccc(C2CNC(=O)C2C(=O)Nc2ccc(F)cc2F)c1", "note": "(racemic) [Compound 377]", "values": [{"measurement": "Plant response rating, Kochia", "setting": "[1]; [21]", "result": 60}, {"measurement": "Plant response rating, Kochia", "setting": "[1]; [22]", "result": 30}, {"measurement": "Plant response rating, Ragweed", "setting": "[2]; [21]", "result": 60}, {"measurement": "Plant response rating, Ragweed", "setting": "[2]; [22]", "result": 40}, {"measurement": "Plant response rating, Foxtail, Giant", "setting": "[3]; [21]", "result": 80}, {"measurement": "Plant response rating, Foxtail, Giant", "setting": "[3]; [22]", "result": 80}, {"measurement": "Plant response rating, Ryegrass, Italian", "setting": "[4]; [21]", "result": 50}, {"measurement": "Plant response rating, Ryegrass, Italian", "setting": "[4]; [22]", "result": 30}, {"measurement": "Plant response rating, Wheat", "setting": "[5]; [21]", "result": 50}, {"measurement": "Plant response rating, Wheat", "setting": "[5]; [22]", "result": 0}, {"measurement": "Plant response rating, Corn", "setting": "[6]; [21]", "result": 50}, {"measurement": "Plant response rating, Corn", "setting": "[6]; [22]", "result": 0}, {"measurement": "Plant response rating, Barnyardgrass", "setting": "[7]; [21]", "result": 90}, {"measurement": "Plant response rating, Barnyardgrass", "setting": "[7]; [22]", "result": 90}, {"measurement": "Plant response rating, Pigweed", "setting": "[8]; [21]", "result": 30}, {"measurement": "Plant response rating, Pigweed", "setting": "[8]; [22]", "result": 0}, {"measurement": "Plant response rating, Blackgrass", "setting": "[9]; [21]", "result": 70}, {"measurement": "Plant response rating, Blackgrass", "setting": "[9]; [22]", "result": 50}, {"measurement": "Plant response rating, Galium", "setting": "[10]; [21]", "result": 70}, {"measurement": "Plant response rating, Galium", "setting": "[10]; [22]", "result": 60}, {"measurement": "Plant response rating, Kochia", "setting": "[11]; [23]", "result": 50}, {"measurement": "Kochia plant response rating (0 to 100 scale)", "setting": "[11]; [24]", "result": 80}, {"measurement": "Plant response rating, Ragweed", "setting": "[12]; [23]", "result": 0}, {"measurement": "Ragweed plant response rating (0 to 100 scale)", "setting": "[12]; [24]", "result": 0}, {"measurement": "Plant response rating, Foxtail, Giant", "setting": "[13]; [23]", "result": 90}, {"measurement": "Foxtail, Giant plant response rating (0 to 100 scale)", "setting": "[13]; [24]", "result": 90}, {"measurement": "Plant response rating, Ryegrass, Italian", "setting": "[14]; [23]", "result": 20}, {"measurement": "Ryegrass, Italian plant response rating (0 to 100 scale)", "setting": "[14]; [24]", "result": 60}, {"measurement": "Plant response rating, Barnyardgrass", "setting": "[15]; [23]", "result": 90}, {"measurement": "Barnyardgrass plant response rating (0 to 100 scale)", "setting": "[15]; [24]", "result": 90}, {"measurement": "Plant response rating, Pigweed", "setting": "[16]; [23]", "result": 50}, {"measurement": "Pigweed plant response rating (0 to 100 scale)", "setting": "[16]; [24]", "result": 70}, {"measurement": "Plant response rating, Ducksalad", "setting": "[17]", "result": 100}, {"measurement": "Plant response rating, Sedge, Umbrella", "setting": "[18]", "result": 0}, {"measurement": "Plant response rating, Barnyardgrass", "setting": "[19]", "result": 60}, {"measurement": "Plant response rating, Rice", "setting": "[20]", "result": 25}]}, {"smiles": "Cc1ccc(C2CNC(=O)C2C(=O)Nc2ccc(F)c(F)c2F)cc1C(F)(F)F", "note": "(racemic) [Compound 681]", "values": [{"measurement": "Plant response rating, Kochia", "setting": "[1]; [25]", "result": 0}, {"measurement": "Plant response rating, Kochia", "setting": "[1]; [26]", "result": 40}, {"measurement": "Plant response rating, Ragweed", "setting": "[2]; [25]", "result": 0}, {"measurement": "Plant response rating, Ragweed", "setting": "[2]; [26]", "result": 0}, {"measurement": "Plant response rating, Foxtail, Giant", "setting": "[3]; [25]", "result": 0}, {"measurement": "Plant response rating, Foxtail, Giant", "setting": "[3]; [26]", "result": 30}, {"measurement": "Plant response rating, Ryegrass, Italian", "setting": "[4]; [25]", "result": 0}, {"measurement": "Plant response rating, Ryegrass, Italian", "setting": "[4]; [26]", "result": 20}, {"measurement": "Plant response rating, Wheat", "setting": "[5]; [25]", "result": 0}, {"measurement": "Plant response rating, Wheat", "setting": "[5]; [26]", "result": 0}, {"measurement": "Plant response rating, Corn", "setting": "[6]; [25]", "result": 0}, {"measurement": "Plant response rating, Corn", "setting": "[6]; [26]", "result": 30}, {"measurement": "Plant response rating, Barnyardgrass", "setting": "[7]; [25]", "result": 40}, {"measurement": "Plant response rating, Barnyardgrass", "setting": "[7]; [26]", "result": 90}, {"measurement": "Plant response rating, Pigweed", "setting": "[8]; [25]", "result": 0}, {"measurement": "Plant response rating, Pigweed", "setting": "[8]; [26]", "result": 0}, {"measurement": "Plant response rating, Blackgrass", "setting": "[9]; [25]", "result": 0}, {"measurement": "Plant response rating, Blackgrass", "setting": "[9]; [26]", "result": 30}, {"measurement": "Plant response rating, Galium", "setting": "[10]; [25]", "result": 30}, {"measurement": "Plant response rating, Galium", "setting": "[10]; [26]", "result": 50}, {"measurement": "Plant response rating, Kochia", "setting": "[11]; [27]", "result": 20}, {"measurement": "Plant response rating, Kochia", "setting": "[11]; [28]", "result": 60}, {"measurement": "Plant response rating, Ragweed", "setting": "[12]; [27]", "result": 0}, {"measurement": "Plant response rating, Ragweed", "setting": "[12]; [28]", "result": 0}, {"measurement": "Plant response rating, Foxtail, Giant", "setting": "[13]; [27]", "result": 90}, {"measurement": "Plant response rating, Foxtail, Giant", "setting": "[13]; [28]", "result": 90}, {"measurement": "Plant response rating, Ryegrass, Italian", "setting": "[14]; [27]", "result": 0}, {"measurement": "Plant response rating, Ryegrass, Italian", "setting": "[14]; [28]", "result": 30}, {"measurement": "Plant response rating, Barnyardgrass", "setting": "[15]; [27]", "result": 70}, {"measurement": "Plant response rating, Barnyardgrass", "setting": "[15]; [28]", "result": 80}, {"measurement": "Plant response rating, Pigweed", "setting": "[16]; [27]", "result": 0}, {"measurement": "Plant response rating, Pigweed", "setting": "[16]; [28]", "result": 30}, {"measurement": "Plant response rating, Ducksalad", "setting": "[17]", "result": 25}, {"measurement": "Plant response rating, Sedge, Umbrella", "setting": "[18]", "result": 0}, {"measurement": "Plant response rating, Barnyardgrass", "setting": "[19]", "result": 35}, {"measurement": "Plant response rating, Rice", "setting": "[20]", "result": 0}]}]}
